According to article PMC12121987, “New structural scaffolds to enhance the metabolic stability of arginine-derived PAD4 inhibitors” (Results in chemistry, 2025):
Like-named read-outs stand apart in the source and are kept apart here.

Experiments:
[1] = cited from earlier work
[2] = target: T1, PAD4 (Homo sapiens, UniProt Q9UM07); assay: PAD4 enzyme inhibition assay (Cayman PAD4 inhibitor screening kit, AMC); format: biochemical; details: n = 3; read-out: Inhibitory activity IC50 PAD4
T1 construct: purchased Cayman Chemical
Method: chromatography with ACN:H2O (0.02% formic acid) as the mobile phase, and then […]
(§1) PAD4 Enzyme Inhibition Assays
(§2) PAD4 Inhibitor Screening Assay Kit (AMC) was purchased from Cayman. Different concentrations of the test compounds were added to a 96-well plate with PAD4 enzyme enzyme and incubated at 37 °C for 10 minutes or 30 minutes. Then […] was added toinitiate the reaction and incubated at 37 °C for 20 min. The reaction was terminated by the addition of Develop solution.
Fluorescence analysis was performed at excitation wavelengths of 355 ~ 365 nm and emission wavelengths of 445 ~ 455 nm. The fluorescence signal was inversely proportional to the amount ofcitrullination. IC50 were analyzed using GraphPad Prism […]
(§3) Microsomal metabolic stability assay protocol
(§4) Pooled liver microsomes from male C57BL/6 mouse (MLM) and mixed gender human (HLM) were obtained from Sekisui XenoTech (Kansas City, KS). Stock solutions of compounds (1 mM) were prepared in DMSO and diluted to 10 μM working solution using phosphate buffer (100 mM, pH 7.4). Microsomes (20 mg/mL) were thawed on ice and diluted to 1 mg/mL using potassium phosphate buffer (100 mM, pH 7.4). The mixture of liver microsomes and test compounds (0.2 μM) was (1 picture or pasted object on this page, not shown here)

[3] = target: PAD2 (Homo sapiens, UniProt Q9Y2J8); assay: PAD2 inhibitory activity; format: biochemical; details: n = 3
[4] = target: T2, PAD1 (Homo sapiens, UniProt Q9ULC6); assay: PAD1 inhibitory activity; format: biochemical; details: n = 3
T2 sequence (Q9ULC6 1-663): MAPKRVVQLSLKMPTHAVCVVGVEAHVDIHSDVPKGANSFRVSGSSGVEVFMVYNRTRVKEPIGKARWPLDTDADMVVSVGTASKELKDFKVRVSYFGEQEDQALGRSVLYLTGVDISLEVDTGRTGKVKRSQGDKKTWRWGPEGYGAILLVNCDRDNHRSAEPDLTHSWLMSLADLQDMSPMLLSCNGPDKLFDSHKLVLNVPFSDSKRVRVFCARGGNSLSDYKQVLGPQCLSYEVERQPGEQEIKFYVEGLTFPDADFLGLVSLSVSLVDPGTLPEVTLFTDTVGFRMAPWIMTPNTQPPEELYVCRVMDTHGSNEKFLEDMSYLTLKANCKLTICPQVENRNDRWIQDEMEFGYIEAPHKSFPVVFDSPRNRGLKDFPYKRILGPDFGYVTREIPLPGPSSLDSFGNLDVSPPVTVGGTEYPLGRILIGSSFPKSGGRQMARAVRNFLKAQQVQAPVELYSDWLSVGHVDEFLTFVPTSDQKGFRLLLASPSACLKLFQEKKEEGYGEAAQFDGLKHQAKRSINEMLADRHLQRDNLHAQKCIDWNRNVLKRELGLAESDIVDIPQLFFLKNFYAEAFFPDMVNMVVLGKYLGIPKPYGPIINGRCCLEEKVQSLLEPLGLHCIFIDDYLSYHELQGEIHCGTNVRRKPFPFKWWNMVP

[5] = target: T1, PAD4; assay: Time-dependent PAD4 inhibition assay (pre-incubation 10 or 30 min); format: biochemical; details: BB-Cl-amidine 1 μM, 7 125 μM, 8 45 μM, n = 3
Method: To test this hypothesis, the three compounds (3, 7 and 8) were further assessed through a time-dependent inhibition assay. This assay involved pre-incubating the compounds with the PAD4 enzyme for 10 and 30 min before initiation of the enzymatic reaction.
Fig. 3. Inhibition of PAD4 with a pre-incubation of the enzyme and tested compounds for 10- or 30-min. […]
as §1, §2
Fluorescence analysis was performed at excitation wavelengths of 355 ~ 365 nm and emission wavelengths of 445 ~ 455 nm. The fluorescence signal was inversely

[6] = MTT cytotoxicity assay; format: cell-based; details: human, A549 cells, 48-hour incubation; for viability at 48 h, 500 µM: read-out: Cell viability of A549 cells; for IC50 at 48 h: read-out: IC50 against A549 cells (cytotoxicity)
Method: (§5) The cytotoxicity of three compounds on A549 cells was evaluated using the MTT assay.
(§6) In vitro cytotoxicity was evaluated using the MTT
(§7) (3-(4,5-dimethylthiazol-2-yl)-2,5-diphenyltetrazolium bromide) assay. Freshly trypsinized A549 cells were seeded into 96-well plates at a density of 5 × 10⁴ cells/mL, with 100 µL per well, and incubated at 37°C in a 5% CO₂ atmosphere for 12 hours. […]
(§8) concentrations of 500 μM, 50 μM, and 5 μM (25 µL per well), followed by 48-hour incubation. After this period, MTT solution (5 mg/mL) was added to each well at 25 µL per well, and the plates were incubated for an additional 4 hours. Control wells containing untreated cells were handled identically. Following incubation, the medium in the 96-well plate was removed, and 100 µL of DMSO was added to each well to dissolve the formazan crystals produced by the reduction of MTT in viable cells. Absorbance was measured using a microplate reader. Cell viability was determined using the following formula: Cell viability (%) = (OD-treated cells)/(OD […]

[7] = test system: A549 cells; assay: MTT cytotoxicity assay; format: cell-based; details: 50 μM and 5 μM, 48-hour incubation
Method: as §5, §6, §7, §8

[8] = Microsomal metabolic stability, mouse liver microsomes; format: in vitro ADME; details: male, C57BL/6, mouse, pooled liver microsomes; for remaining at 1 h, 0.2 μM: pH 7.4, 60 min, n = 3, read-out: %remaining in MLM; for half-life at 0.2 μM: pH 7.4, MLM
Method: (§9) The metabolic stability of the compounds was evaluated using mouse liver microsomes (MLM) and human liver microsomes (HLM). Each compound was tested at a final concentration of 0.2 μM to determine their half-lives. […]
as §3
as §4, with “here) […]” for “here)”
(§10) preincubated at 37°C for 10 min. Next, NADPH-regenerating system (final concentrations of 1 mM NADP+, 5 mM glucose-6-phosphate, and 1 U/mL glucose-6-phosphate dehydrogenase) as a cofactor was added to the incubation mixtures at the final volume of 1000 μL to initiate the metabolic reactions. Quenching of the metabolic reaction was performed at specific intervals: 0, 5, 15, 30, and 60 min by adding100 μL of reaction mixtures to ice-cold acetonitrile (4 volumes) containing 25 nM internal standard. The samples were kept on ice for 15 minutes, followed by protein precipitation through centrifugation at 3600 rpm for 10 minutes at4°C. Finally, the liquid chromatography-mass spectrometry/MS (LC-MS/MS) analysis was conducted on obtained supernatants. To ensure accuracy, all measurements were […]
(§11) The percent of remaining compound (%R) compared to zero sample time was obtained at each time point using LC-MS peak areas. A plot was created for the natural logarithm (ln) of % R against the incubation time to determine the elimination rate constant from the slope of the linear part. The in vitro t1/2was measured by […]
(§12) While the following Eq. (2) was used for calculating CLint (μL/min/mg): […]

[9] = Microsomal metabolic stability, human liver microsomes; format: in vitro ADME; details: both sexes, pooled liver microsomes; for remaining at 1 h, 0.2 μM: pH 7.4, 60 min, n = 3, read-out: %remaining in HLM; for half-life at 0.2 μM: pH 7.4, HLM, read-out: half-life (t1/2) in human liver microsomes
Method: as §9, §3
as §4, with “here) […]” for “here)”
as §10, §11, §12

[10] = read-out: half-life (t1/2) in mouse liver microsomes
[11] = rough estimation beyond the 60 min assay, read-out: t1/2 in MLM, rough estimation

T1 sequence (Q9UM07 whole entry): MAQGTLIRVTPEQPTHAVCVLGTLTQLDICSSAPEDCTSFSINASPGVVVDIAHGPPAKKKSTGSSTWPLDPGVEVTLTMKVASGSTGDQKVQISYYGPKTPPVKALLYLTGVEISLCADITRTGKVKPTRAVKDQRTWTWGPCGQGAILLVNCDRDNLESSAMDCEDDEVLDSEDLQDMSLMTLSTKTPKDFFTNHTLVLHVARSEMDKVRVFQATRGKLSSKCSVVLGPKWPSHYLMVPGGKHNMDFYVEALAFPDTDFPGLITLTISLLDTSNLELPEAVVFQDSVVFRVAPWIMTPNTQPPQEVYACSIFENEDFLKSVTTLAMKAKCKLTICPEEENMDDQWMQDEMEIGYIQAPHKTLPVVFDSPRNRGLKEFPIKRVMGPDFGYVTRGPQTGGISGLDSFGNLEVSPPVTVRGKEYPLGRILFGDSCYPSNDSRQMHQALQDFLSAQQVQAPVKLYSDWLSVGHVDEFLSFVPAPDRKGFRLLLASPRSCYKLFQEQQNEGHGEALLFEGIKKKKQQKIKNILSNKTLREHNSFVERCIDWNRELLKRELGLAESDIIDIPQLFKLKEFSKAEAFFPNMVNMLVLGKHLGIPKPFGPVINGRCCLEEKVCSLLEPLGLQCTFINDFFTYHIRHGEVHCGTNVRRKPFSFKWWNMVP
Chain of PAD2 (Q9Y2J8 whole entry, species assumed): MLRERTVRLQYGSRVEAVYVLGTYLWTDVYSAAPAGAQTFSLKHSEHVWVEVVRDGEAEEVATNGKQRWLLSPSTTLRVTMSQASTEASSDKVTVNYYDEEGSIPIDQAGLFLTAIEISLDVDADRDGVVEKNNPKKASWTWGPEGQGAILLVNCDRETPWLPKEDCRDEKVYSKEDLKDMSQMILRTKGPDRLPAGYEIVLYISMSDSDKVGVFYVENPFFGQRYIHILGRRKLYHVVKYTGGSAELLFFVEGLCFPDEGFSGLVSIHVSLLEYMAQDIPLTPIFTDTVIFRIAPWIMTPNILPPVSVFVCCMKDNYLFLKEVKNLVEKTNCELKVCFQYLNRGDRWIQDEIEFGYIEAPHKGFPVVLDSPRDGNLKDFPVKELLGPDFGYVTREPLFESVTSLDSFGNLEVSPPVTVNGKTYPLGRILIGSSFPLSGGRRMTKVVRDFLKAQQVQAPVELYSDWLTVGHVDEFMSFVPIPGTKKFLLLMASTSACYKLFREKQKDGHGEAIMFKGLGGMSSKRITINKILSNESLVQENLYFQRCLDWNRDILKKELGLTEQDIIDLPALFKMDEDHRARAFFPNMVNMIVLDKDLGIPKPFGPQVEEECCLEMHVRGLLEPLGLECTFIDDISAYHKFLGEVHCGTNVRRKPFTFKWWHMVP

## N=C(CCl)NCCC[C@H](Nc1ccc([N+](=O)[O-])c2nonc12)C(=O)NCc1ccccc1 [ZD-E-1]
[1]; in vivo
  t1/2 (pharmacokinetic studies): 0.41 h

## N=C(CO)NCCC[C@H](NC(=O)c1ccc(-c2ccccc2)cc1)c1nc2ccccc2[nH]1 [Compound 7]
[2]
  IC50: 125 ± 10.2 µM
[3]
  IC50: 352 ± 21.3 µM
[4]
  IC50: 194 ± 8.21 µM
[5]
  %inhibition of PAD4, pre-incubation 10 min: 31.46%
  %inhibition of PAD4, pre-incubation 30 min: 36.86%
[6]
  viability at 48 h, 500 µM: 26.8%
  IC50 at 48 h: ~455 µM
[7]
  Cytotoxicity on A549 cells: no cytotoxicity
[8]
  remaining at 1 h, 0.2 μM: 75.9 ± 4.75%
[8]; [10]
  half-life at 0.2 μM: > 1 h
[8]; [11]
  half-life at 0.2 μM: ~2.65 h
[9]
  remaining at 1 h, 0.2 μM: 90.3 ± 10.6%
  half-life at 0.2 μM: > 1 h

## O=C(CO)NCCC[C@H](NC(=O)c1ccc(-c2ccccc2)cc1)c1nc2ccccc2[nH]1 [Compound 8]
[2]
  IC50: 46.5 ± 4.46 µM
[3]
  IC50: 74.9 ± 6.48 µM
[4]
  IC50: 32 ± 0.78 µM
[5]
  %inhibition of PAD4, pre-incubation 10 min: 49.28%
  %inhibition of PAD4, pre-incubation 30 min: 51.44%
[6]
  viability at 48 h, 500 µM: 103%
  IC50 at 48 h: > 500 µM
[7]
  Cytotoxicity on A549 cells: no cytotoxicity
[8]
  remaining at 1 h, 0.2 μM: 63 ± 4.85%
[8]; [10]
  half-life at 0.2 μM: > 1 h
[8]; [11]
  half-life at 0.2 μM: ~1.45 h
[9]
  remaining at 1 h, 0.2 μM: 73.2 ± 1.89%
  half-life at 0.2 μM: > 1 h

## N=C(CCl)NCCC[C@H](NC(=O)c1ccc(B(O)O)cc1)C(=O)NCc1ccccc1 [YJ-4B]
[1]
  t1/2 (pharmacokinetic studies): 0.35 h

## N=C(CCl)NCCC[C@H](NC(=O)c1ccc(-c2ccccc2)cc1)c1nc2ccccc2[nH]1 [BB-Cl-amidine, reference compound]
[8]
  remaining at 1 h, 0.2 μM: 10.4 ± 1.42%
[8]; [10]
  half-life at 0.2 μM: 0.302 h
[9]
  remaining at 1 h, 0.2 μM: 51.8 ± 7.48%
  half-life at 0.2 μM: 1.03 h
